≈ marks a conversion by molar mass, not a printed value. Where two headings read alike, the source gives them in different places. Marks after values point to notes of the source that are not given here.
System: Legionella pneumophila MMX 7515
Assay: microbe, parasite or virus in culture
Type: cell-based
Settings: for MIC: Legionella pneumophila
[1] = MMX7515, 24 h, read-out: MIC (in vitro activity)
[2] = MMX7515, 48 h, read-out: MIC (in vitro activity)

Compound | MIC [1] | MIC [2] | MIC (in vitro activity) (L. pneumophila MMX 7515, plate read at 48 hr) | MIC (in vitro activity) (Legionella pneumophila MMX 7515, plate read at 24 hr) | MIC (MMX7515, read-out: MIC values)
CN[C@H](CC(C)C)C(=O)N[C@H]1C(=O)N[C@@H](CC(N)=O)C(=O)N[C@H]2C(=O)N[C@H]3C(=O)N[C@H](C(=O)N[C@H](C(=O)O)c4cc(O)cc(O)c4-c4cc3ccc4O)[C@H](O)c3ccc(c(Cl)c3)Oc3cc2cc(c3O[C@@H]2O[C@H](CO)[C@@H](O)[C@H](O)[C@H]2O[C@H]2C[C@](C)(N)[C@H](O)[C@H](C)O2)Oc2ccc(cc2Cl)[C@H]1O [VAN, vancomycin] | 0.12 µg/mL (≈ 0.0828 µM) | 0.25 µg/mL (≈ 0.173 µM) |  |  | 
gentamicin |  |  | 2** μg/mL | 1* μg/mL | 
C=C(C)C1CCC(C)=CC1c1c(O)cc(CCCCC)cc1O (centres unmarked) [CBD, 2-[3-methyl-6-(1-methylethenyl)-2-cyclohexen-1-yl]-5-pentyl-1,3-benzenediol] | 1 µg/mL (≈ 3.18 µM) | 1 µg/mL (≈ 3.18 µM) |  |  | 1 µg/mL (≈ 3.18 µM)
C[C@@H](O)[C@H]1C(=O)N2C(C(=O)O)=C(S[C@@H]3CN[C@H](C(=O)N(C)C)C3)[C@H](C)[C@H]12 [MEM, meropenem] | 0.25 µg/mL (≈ 0.652 µM) | 0.5 µg/mL (≈ 1.3 µM) |  |  | 
C[C@H]1COc2c(N3CCN(C)CC3)c(F)cc3c(=O)c(C(=O)O)cn1c23 [LVX, levofloxacin] | 0.5 µg/mL (≈ 1.38 µM) | 0.5 µg/mL (≈ 1.38 µM) |  |  | 
